Laboratory results taken from US20260007758A1, “SO[…]-2 RECEPTOR (SST2R) NON-PEPTIDE DRUG CONJUGATES AND USES THEREOF” (Crinetics Pharmaceuticals, Inc., priority 2024, published 2026).

How the values were obtained:
Assay type in all cases: cell-based
[1] = tested on: NCI-H524 human small cell lung cancer cells; assay: H524 assay: inhibition of cell proliferation (CellTiter Glo); conditions: 2 h treatment, washout, additional 70 h incubation
Summary of the method: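 Proliferation was measured by CellTiter Glo 70 h after a washout that followed a 2 h pulse of NDC. Doses were an 11-point, two-fold dilution series from 1 uM. IC50 was fitted with a four-parameter model to luminescence-based % inhibition relative to control cells.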

[2] = molecular target: T1, human somatostatin receptor subtype 2 (Homo sapiens, UniProt P30874); assay: Functional assay for SSTR2 agonists (HTRF cAMP); conditions: CHO-K1 cells stably expressing human SST2; NKH477-stimulated cAMP; 20 min at 37 C; read-out: hSST2 cAMP Avg EC50
T1 construct: expressed in transfected cells
Summary of the method: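 Agonist activity read as fall in intracellular cAMP: HTRF 665/620 nm ratio regressed to a cAMP standard curve, EC50 fitted. Stable human SSTR2 CHO-K1 cells exposed 20 min at 37 °C to compound, final concentrations typically 0-10,000 nM.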

[3] = molecular target: T2, SST2 (Homo sapiens, UniProt P30874); assay: PathHunter CHO-K1 SST2 Internalization Assay; conditions: PathHunter CHO-K1 SST2 cells; 90 min at 37 C; luminescence; read-out: Internalization EC50
T2 construct: host or cells: PathHunter CHO-K1 SST2 cells
Summary of the method: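 Four-parameter nonlinear fits of background-corrected luminescence (duplicate means) gave IC50s. NDCs were serially diluted 1:3 over 11 points from a 10 uM final top concentration and incubated 90 min at 37 C with human SST2 CHO-K1 cells plated 48 h earlier at 2500/well. Beta-Glo read-out developed 60 min at RT.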

T2 sequence (P30874 whole entry): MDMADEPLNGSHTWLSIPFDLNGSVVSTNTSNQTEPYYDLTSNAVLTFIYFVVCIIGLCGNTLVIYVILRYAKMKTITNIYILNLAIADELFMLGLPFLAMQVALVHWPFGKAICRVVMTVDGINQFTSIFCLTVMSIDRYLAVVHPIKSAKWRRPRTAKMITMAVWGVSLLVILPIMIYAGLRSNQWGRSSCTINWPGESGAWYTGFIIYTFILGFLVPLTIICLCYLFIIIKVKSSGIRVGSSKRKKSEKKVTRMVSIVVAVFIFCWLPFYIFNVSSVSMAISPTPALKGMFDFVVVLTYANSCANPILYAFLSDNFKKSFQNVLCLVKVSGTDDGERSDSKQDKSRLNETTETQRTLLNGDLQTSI
T1 sequence (P30874 whole entry): as above

Row | Structure (SMILES) | EC50 [1] [nM] | EC50 [2] [nM] | EC50 [3] [nM]
1 | CC[C@H](C)[C@@H]([C@@H](CC(=O)N1CCC[C@H]1[C@H](OC)[C@@H](C)C(=O)N[C@H](C)[C@@H](O)c1ccccc1)OC)N(C)C(=O)[C@@H](NC(=O)[C@H](C(C)C)N(C)C(=O)OCc1ccc(NC(=O)[C@H](C)NC(=O)[C@@H](NC(=O)CCOCCn2cc(CCC(=O)NCCNc3ncc(-c4cc(C)cc(F)c4)c(N4CCC(N)CC4)c3-c3nc4ccc(Cl)cc4[nH]3)nn2)C(C)C)c(O[C@@H]2O[C@H](C(=O)O)[C@@H](O)[C@H](O)[C@H]2O)c1)C(C)C [Compound 141] | 20 | 0.1 | 8.8
2 | CC[C@H](C)[C@@H]([C@@H](CC(=O)N1CCC[C@H]1[C@H](OC)[C@@H](C)C(=O)N[C@H](C)[C@@H](O)c1ccccc1)OC)N(C)C(=O)[C@@H](NC(=O)[C@H](C(C)C)N(C)C(=O)OCc1ccc(NC(=O)[C@H](CCCNC(N)=O)NC(=O)[C@@H](NC(=O)CCOCCOCCC(=O)NCCNc2ncc(-c3cc(C)cc(F)c3)c(N3CCC(N)CC3)c2-c2nc3ccc(Cl)cc3[nH]2)C(C)C)cc1C(=O)NCCNC(=O)CCCCCCCCCCC(=O)O)C(C)C [Compound 83] | 310 | 0.53 | 7
3 | CC[C@@H](C)[C@H]([C@H](CC(=O)N1CCCC1[C@@H](OC)[C@H](C)C(=O)N[C@@H](C)[C@H](O)c1ccccc1)OC)N(C)C(=O)[C@H](NC(=O)[C@@H](C(C)C)N(C)C(=O)OCc1ccc(NC(=O)[C@H](C)NC(=O)[C@H](NC(=O)CCOCCC(=O)NCCNc2ncc(-c3cc(C)cc(F)c3)c(N3CCC(N)CC3)c2-c2nc3ccc(Cl)cc3[nH]2)C(C)C)c(O[C@H]2O[C@@H](C(=O)O)[C@H](O)[C@@H](O)[C@@H]2O)c1)C(C)C (stereo partly drawn) [Compound 240] | 3100 | 0.12 | 6
4 | CC[C@H](C)[C@@H]([C@@H](CC(=O)N1CCC[C@H]1[C@H](OC)[C@@H](C)C(=O)N[C@H](C)[C@@H](O)c1ccccc1)OC)N(C)C(=O)[C@@H](NC(=O)[C@H](C(C)C)N(C)C(=O)OCc1ccc(NC(=O)[C@H](CCCNC(N)=O)NC(=O)[C@@H](NC(=O)c2cc(OCCOCCC(=O)NCCNc3ncc(-c4cc(C)cc(F)c4)c(N4CCC(N)CC4)c3-c3nc4ccc(Cl)cc4[nH]3)cc(C(=O)NCC(=O)O)c2)C(C)C)cc1)C(C)C [Compound 160] | 100 | 0.25 | 7.4
5 | CC[C@H](C)[C@@H]([C@@H](CC(=O)N1CCC[C@H]1[C@H](OC)[C@@H](C)C(=O)N[C@H](C)[C@@H](O)c1ccccc1)OC)N(C)C(=O)[C@@H](NC(=O)[C@H](C(C)C)N(C)C(=O)OCc1ccc(NC(=O)[C@H](CCCNC(N)=O)NC(=O)[C@@H](NC(=O)CCOCCC(=O)NCCNc2ncc(-c3cc(C)cc(F)c3)c(N3CCC(N)CC3)c2-c2nc3ccc(Cl)cc3[nH]2)C(C)C)c(O[C@@H]2O[C@H](C(=O)N3CCOCC3)[C@@H](O)[C@H](O)[C@H]2O)c1)C(C)C [Compound 223] | 9.2 | 0.054 | 2.8
6 | CC[C@H](C)[C@@H]([C@@H](CC(=O)N1CCC[C@H]1[C@H](OC)[C@@H](C)C(=O)N[C@H](C)[C@@H](O)c1ccccc1)OC)N(C)C(=O)[C@@H](NC(=O)[C@H](C(C)C)N(C)C(=O)OCc1ccc(NC(=O)[C@H](CCCNC(N)=O)NC(=O)[C@@H](NC(=O)CCCCC(=O)NCCNc2ncc(-c3cc(C)cc(F)c3)c(N3CCC(N)CC3)c2-c2nc3ccc(Cl)cc3[nH]2)C(C)C)cc1C(=O)NCC(=O)O)C(C)C [Compound 72] | 40 | 0.11 | 4.7
7 | CC[C@H](C)[C@@H]([C@@H](CC(=O)N1CCC[C@H]1[C@H](OC)[C@@H](C)C(=O)N[C@H](C)[C@@H](O)c1ccccc1)OC)N(C)C(=O)[C@@H](NC(=O)[C@H](C(C)C)N(C)C(=O)OCc1ccc(NC(=O)[C@H](C)NC(=O)[C@@H](NC(=O)CCOCCC(=O)NCCNc2ncc(-c3cncc(C)c3)c(N3CCC(N)CC3)c2-c2nc3ccc(Cl)cc3[nH]2)C(C)C)c(O[C@@H]2O[C@H](C(=O)O)[C@@H](O)[C@H](O)[C@H]2O)c1)C(C)C [Compound 129] | 3000 | 190 | 960
8 | CC[C@H](C)[C@@H]([C@@H](CC(=O)N1CCC[C@H]1[C@H](OC)[C@@H](C)C(=O)N[C@H](C)[C@@H](O)c1ccccc1)OC)N(C)C(=O)[C@@H](NC(=O)[C@H](C(C)C)N(C)C(=O)OCc1ccc(NC(=O)[C@H](C)NC(=O)[C@@H](NC(=O)CCOCCC(=O)NCCNc2ncc(-c3cc(C)cc(F)c3)c(N3CCC(N)CC3)c2-c2cc3ccc(Cl)cc3[nH]2)C(C)C)c(O[C@@H]2O[C@H](C(=O)O)[C@@H](O)[C@H](O)[C@H]2O)c1)C(C)C [Compound 115] | 5.1 | 0.075 | 5.9
9 | CC[C@H](C)[C@@H]([C@@H](CC(=O)N1CCC[C@H]1[C@H](OC)[C@@H](C)C(=O)N[C@H](C)[C@@H](O)c1ccccc1)OC)N(C)C(=O)[C@@H](NC(=O)[C@H](C(C)C)N(C)C(=O)OCc1ccc(NC(=O)[C@H](C)NC(=O)[C@@H](NC(=O)CCOCCC(=O)NCCNc2ncc(-c3cc(C)cc(F)c3)c(N3CCC(N)CC3)c2-c2nc3c(F)c(F)ccc3[nH]2)C(C)C)c(O[C@@H]2O[C@H](C(=O)O)[C@@H](O)[C@H](O)[C@H]2O)c1)C(C)C [Compound 109] | 200 | 1.1 | 35
10 | CC[C@H](C)[C@@H]([C@@H](CC(=O)N1CCC[C@H]1[C@H](OC)[C@@H](C)C(=O)N[C@H](C)[C@@H](O)c1ccccc1)OC)N(C)C(=O)[C@@H](NC(=O)[C@H](C(C)C)N(C)C(=O)OCc1ccc(NC(=O)[C@H](CCCNC(N)=O)NC(=O)[C@@H](NC(=O)[C@H](CCC(=O)O)NC(=O)CCOCCC(=O)NCCNc2ncc(-c3cc(C)cc(F)c3)c(N3CCC(N)CC3)c2-c2nc3ccc(Cl)cc3[nH]2)C(C)C)c(OC)c1)C(C)C [Compound 16] | 160 | 0.083 | 7.8
11 | CC[C@H](C)[C@@H]([C@@H](CC(=O)N1CCC[C@H]1[C@H](OC)[C@@H](C)C(=O)N[C@H](C)[C@@H](O)c1ccccc1)OC)N(C)C(=O)[C@@H](NC(=O)C(C(C)C)N(C)C(=O)OCc1ccc(NC(=O)[C@H](CCCNC(N)=O)NC(=O)[C@@H](NC(=O)CCOCCC(=O)NCCNc2ncc(-c3cc(C)cc(F)c3)c(N3CCC(N)CC3)c2-c2nc3ccc(Cl)cc3[nH]2)C(C)C)c(O[C@@H]2O[C@H](C(=O)N3CCCCC3)[C@@H](O)[C@H](O)[C@H]2O)c1)C(C)C (stereo partly drawn) [Compound 228] | 36 | 0.26 | 10
12 | CC[C@H](C)[C@@H]([C@@H](CC(=O)N1CCC[C@H]1[C@H](OC)[C@@H](C)C(=O)N[C@H](C)[C@@H](O)c1ccccc1)OC)N(C)C(=O)[C@@H](NC(=O)[C@H](C(C)C)N(C)C(=O)OCc1ccc(NC(=O)[C@H](CCCNC(N)=O)NC(=O)[C@@H](NC(=O)CCOCCC(=O)NCCNc2ncc(-c3cc(C)cc(F)c3)c(N3CCC(N)CC3)c2-c2nc3ccc(Cl)cc3[nH]2)C(C)C)c(OCCN)c1)C(C)C [Compound 10] | 0.76 | 0.21 | 2.7
13 | CC[C@H](C)[C@@H]([C@@H](CC(=O)N1CCC[C@H]1[C@H](OC)[C@@H](C)C(=O)N[C@H](C)[C@@H](O)c1ccccc1)OC)N(C)C(=O)[C@@H](NC(=O)[C@H](C(C)C)N(C)C(=O)OCc1ccc(NC(=O)[C@H](CCCNC(N)=O)NC(=O)[C@@H](NC(=O)[C@H](CCC(=O)O)NC(=O)CCOCCC(=O)NCCNc2ncc(-c3cc(C)cc(F)c3)c(N3CCC(N)CC3)c2-c2nc3ccc(Cl)cc3[nH]2)C(C)C)cc1C(=O)N1CC(N)C1)C(C)C [Compound 91] | 1000 | 0.46 | 2.5
14 | CC[C@H](C)[C@@H]([C@@H](CC(=O)N1CCC[C@H]1[C@H](OC)[C@@H](C)C(=O)N[C@H](C)[C@@H](O)c1ccccc1)OC)N(C)C(=O)[C@@H](NC(=O)[C@H](C(C)C)N(C)C(=O)OCc1ccc(NC(=O)[C@H](CCCNC(N)=O)NC(=O)[C@@H](NC(=O)[C@H](CCC(N)=O)NC(=O)CCOCCOCCOCCOCCC(=O)NCCNc2ncc(-c3cc(C)cc(F)c3)c(N3CCC(N)CC3)c2-c2nc3ccc(Cl)cc3[nH]2)C(C)C)c(OCCN)c1)C(C)C [Compound 26] | 17 | 0.3 | 12
15 | CC[C@H](C)[C@@H]([C@@H](CC(=O)N1CCC[C@H]1[C@H](OC)[C@@H](C)C(=O)N[C@H](C)[C@@H](O)c1ccccc1)OC)N(C)C(=O)[C@@H](NC(=O)[C@H](C(C)C)N(C)C(=O)OCc1ccc(NC(=O)[C@H](CCCNC(N)=O)NC(=O)[C@@H](NC(=O)C[C@@H](N)C(=O)NCCOCCOCCC(=O)NCCNc2ncc(-c3cc(C)cc(F)c3)c(N3CCC(N)CC3)c2-c2nc3ccc(Cl)cc3[nH]2)C(C)C)c(O[C@@H]2O[C@H](C(=O)O)[C@@H](O)[C@H](O)[C@H]2O)c1)C(C)C [Compound 137] | 850 | 0.27 | 2.8
16 | CC[C@H](C)[C@@H]([C@@H](CC(=O)N1CCC[C@H]1[C@H](OC)[C@@H](C)C(=O)N[C@H](C)[C@@H](O)c1ccccc1)OC)N(C)C(=O)[C@@H](NC(=O)[C@H](C(C)C)N(C)C(=O)OCc1ccc(NC(=O)[C@H](CCCNC(N)=O)NC(=O)[C@@H](NC(=O)c2cc(NC(=O)CCOCCC(=O)NCCNc3ncc(-c4cc(C)cc(F)c4)c(N4CCC(N)CC4)c3-c3nc4ccc(Cl)cc4[nH]3)cc(C(=O)NCC(=O)O)c2)C(C)C)cc1)C(C)C [Compound 149] | 100 | 0.033 | 12
